According to ChEMBL document CHEMBL3217490, “An approach to enzyme inhibition employing reversible boronate ester formation” (Medchemcomm, 2011):
The source made the active and inactive calls. The calls are words filed in the database; no cut-off is given here.

Columns and labels:
[1] = Dissociation constant, pKa of the compound; assay type: physicochemical
[2] = Inhibition of alpha-chymotrypsin (unknown origin); parameters: species or system Homo sapiens
Homo sapiens [3] = species: Homo sapiens; experiment: Binding affinity to alpha-chymotrypsin (unknown origin) at 5 mM by [1H] waterLOGSY NMR analysis in presence of L-fructose
Homo sapiens [4] = species: Homo sapiens; experiment: Binding affinity to alpha-chymotrypsin (unknown origin) at 1 mM at pH 5.8 by 11B-NMR analysis in presence of D-fructose
[5] = Inhibition of Escherichia coli beta-lactamase AmpC
Homo sapiens [6] = species: Homo sapiens; experiment: Binding affinity to alpha-chymotrypsin (unknown origin) at 5 mM by [1H] waterLOGSY NMR analysis in presence of D-fructose
Homo sapiens [7] = species: Homo sapiens; experiment: Inhibition of alpha-chymotrypsin (unknown origin) using succinyl-Ala-Ala-Pro-Phe-para-nitroanilide as substrate assessed as residual activity at 25 uM after 10 mins in presence of D-fructose relative to control
Homo sapiens [8] = species: Homo sapiens; experiment: Binding affinity to alpha-chymotrypsin (unknown origin) at 1 mM at pH 5.8 by 11B-NMR analysis in presence of L-fructose
Homo sapiens [9] = species: Homo sapiens; experiment: Inhibition of alpha-chymotrypsin (unknown origin) using succinyl-Ala-Ala-Pro-Phe-para-nitroanilide as substrate assessed as residual activity at 25 uM after 10 mins in presence of L-fructose relative to control
Homo sapiens [10] = species: Homo sapiens; experiment: Inhibition of alpha-chymotrypsin (unknown origin) using succinyl-Ala-Ala-Pro-Phe-para-nitroanilide as substrate assessed as residual activity at 25 uM after 10 mins in presence of D-glucose relative to control
Homo sapiens [11] = species: Homo sapiens; experiment: Inhibition of alpha-chymotrypsin (unknown origin) using succinyl-Ala-Ala-Pro-Phe-para-nitroanilide as substrate assessed as residual activity at 25 uM after 10 mins in presence of L-glucose relative to control
Homo sapiens [12] = species: Homo sapiens; experiment: Binding affinity to alpha-chymotrypsin (unknown origin) at 1 mM at pH 5.8 by 11B-NMR analysis
Homo sapiens [13] = species: Homo sapiens; experiment: Binding affinity to alpha-chymotrypsin (unknown origin) at 1 mM at pH 5.8 by 11B-NMR analysis in presence of L-sorbose
Homo sapiens [14] = species: Homo sapiens; experiment: Binding affinity to alpha-chymotrypsin (unknown origin) at 1 mM at pH 5.8 by 11B-NMR analysis in presence of D-sorbose

Structure (SMILES)	pKa [1]	IC50 [2] [µM]	Activity (Homo sapiens [3])	Activity (Homo sapiens [4])	Activity (Homo sapiens [6])	further results
OB(O)c1ccc(O)cc1	10	–	–	–	–	–
OB(O)c1ccc2ccccc2c1	8.88	–	–	–	–	–
CCB(O)O	10	–	–	–	–	–
OB(O)O [BORIC ACID]	10	–	–	–	–	–
OB(O)c1cc2ccccc2o1	7.3	14	inactive	Active	Active	IC50 [5]: 0.22 µM
OB(O)c1cc2ccccc2s1	7.44	5	inactive	Active	Active	Activity (Homo sapiens [7]): 78%; Activity (Homo sapiens [8]): Active; Activity (Homo sapiens [9]): 97%; Activity (Homo sapiens [10]): 97%; Activity (Homo sapiens [11]): 94%; Activity (Homo sapiens [12]): Active; Activity (Homo sapiens [13]): Active; Activity (Homo sapiens [14]): Active
